Read-outs that look alike come from different tables or passages of the source.
Legend:
Format in all cases: cell-based, Erwinia chrysanthemi
[1] = target: T1, ELIC WT (Dickeya chrysanthemi, UniProt P0C7B7, INS163G); test: cell-based; settings: WT; for Slope: Schild plot slope
T1 construct: expressed in transfected cells; host or cells: X. laevis oocytes (cRNA injection, pTLN vector)
Protocol: (§1) Constructs containing the gene of either the WT or mutant channels preceded by the signal sequence of the chicken α7nAchR were cloned into the pTLN vector for expression in X. laevis oocytes. After linearization of the plasmid DNA by MluI, capped complementary RNA was transcribed with the mMessage mMachine kit (Ambion) and purified with the RNeasy kit (Qiagen). For expression, 1–50 ng of RNA was injected into defolliculated oocytes. Two-electrode voltage clamp measurements were performed 1 d after injection at 20°C (OC-725B, Warner Instrument Corp.). Currents were recorded in bath solutions containing 10 mM HEPES (pH 7), 130 mM NaCl, and the indicated concentrations of cysteamine and divalent cations. In case of solutions containing Zn^2+, cysteamine was replaced by propylamine. The membrane potential in all dose–response measurements was set to −40 mV. As ELIC is permeable to divalent cations, we tested if endogenous calcium-activated chloride channels affected our measurements. To chelate intracellular calcium ions, the oocytes were incubated for 15 to 30 min in bath solutions lacking divalent ions but containing 10 µM BAPTA-AM.

[2] = target: T2, ELIC H176A (Dickeya chrysanthemi, UniProt P0C7B7, H176A/INS163G); test: Two-electrode voltage clamp, ELIC H176A in oocytes; settings: agonist propylamine
T2 construct: expressed in transfected cells; host or cells: X. laevis oocytes
Protocol: as §1

[3] = target: T3, ELIC D113A/D158A (Dickeya chrysanthemi, UniProt P0C7B7, D113A/D158A/INS163G); test: cell-based; settings: agonist propylamine; for EC50: 113A/158A
T3 construct: expressed in transfected cells; host or cells: X. laevis oocytes
Protocol: as §1

[4] = target: T4, ELIC WT (Dickeya chrysanthemi, UniProt P0C7B7); test: cell-based; settings: WT, agonist propylamine
T4 construct: expressed in transfected cells; host or cells: X. laevis oocytes (cRNA injection, pTLN vector)
Protocol: as §1

[5] = target: T5, ELIC H168A (Dickeya chrysanthemi, UniProt P0C7B7, H168A/INS163G); test: Two-electrode voltage clamp, ELIC H168A in oocytes; settings: agonist propylamine
T5 construct: expressed in transfected cells; host or cells: X. laevis oocytes
Protocol: as §1

[6] = target: T6, ELIC (Dickeya chrysanthemi, UniProt P0C7B7, INS163G); test: Agonist concentration jumps, outside-out patches from HEK 293 cells expressing ELIC
T6 construct: expressed in transfected cells; host or cells: HEK 293 cells (ATCC CRL-1573), pcDNA3
Protocol: Human embryonic kidney 293 cells (American Type Culture Collection-CRL-1573;LGC Promochem) were maintained at 37°C in a 95% air/5% CO2 incubator in DMEM supplemented with 0.11 g/l sodium pyruvate, 10% (v/v) heat-inactivated fetal bovine serum, 100 U/ml penicillin G, 100 µg/ml streptomycin sulfate, and 2 mM L-glutamine (Invitrogen). Cells (passaged every 2 d, up to 30 times) were plated and transfected by calcium phosphate-DNA coprecipitation, with a total amount of DNA of 3 µg/dish (82% ELIC and 18% eGFP DNA, both subcloned in pcDNA3).
Cells were bathed in an extracellular solution containing (mM): 150 KCl, 0.05 or 0.2 CaCl2, and 10 HEPES, pH adjusted to 7.4 with KOH (osmolarity 310 mOsm). Patch pipettes were pulled from thick-walled borosilicate glass (GC150F; Harvard Apparatus) and fire polished to a resistance of 8–12 MΩ. Intracellular solution contained (mM): 150 KCl, 0.5 CaCl2, 5 EGTA, and 10 HEPES, pH adjusted to 7.4 with KOH. Agonist-evoked currents were recorded at 20°C with an Axopatch 200B amplifier (Molecular Devices) from outside-out patches held at −100 mV. Patches were stepped to this holding voltage 0.2 s before the agonist was applied and otherwise held at −40 mV. No correction for junction potential was applied (calculated value 0.2 mV). Currents were filtered at 5 kHz, digitized at 50 kHz with Digidata 1322A, and saved directly on computer with Clampex software (all MDS Analytical Technologies).
All concentration jumps were performed using a piezo stepper (Burleigh instruments) with an application tool made from theta tube glass (Hilgenberg; final tip diameter, 150 µm). Voltage commands for the piezo stepper were 200 ms square pulses conditioned by low-pass eight-pole Bessel filtering (−3 dB frequency 5 kHz) to smooth oscillations. Actual exchange time was estimated by recording the open-tip response to the application of diluted extracellular solution (70% water) after rupture of the patch. Only patches in which the 20%–80% exchange time was faster than 250 µs were included in the analysis.
Agonist solutions were freshly prepared every day from 1 M stock solutions. Propylamine was applied at a concentration known to elicit maximum response (20 mM and 50 mM, for 50 and 200 µM Ca^2+, respectively). Traces shown are averages of 5 or 10 individual agonist currents, separated by at least 10 s. Responses were averaged, and the time course of activation and deactivation (between 95% and 5% of the peak current level) was fitted with one exponential component (program Clampfit 9.0).

[7] = Schild analysis, agonist cysteamine, read-out: Ki app
[8] = Schild plot x-intercept (log of mM), agonist cysteamine, −40 mV
[9] = Ca^2+ 50 µM, propylamine 20 mM (last line, repeat)
[10] = Ca^2+ 50 µM, propylamine 20 mM, −100 mV (first line)
[11] = Ca^2+ 200 µM, propylamine 20 mM
[12] = Ca^2+ 200 µM, propylamine 50 mM

[Sr+2] [Sr^2+]
Ki [1, 7]: 0.85 mM
Slope ([1]; agonist cysteamine): 0.9±0.02
pA [1, 8]: −0.07±0.02

[Mg+2] [Mg^2+]
Ki [1, 7]: 0.43 mM
Slope ([1]; agonist cysteamine): 0.9±0.01
pA [1, 8]: −0.36±0.02

CCCN [propylamine]
EC50 ([2]; Zn^2+ 0 mM): 5.16 mM
EC50 ([2]; Zn^2+ 0.01 mM): 11.9 mM
EC50 ([2]; Zn^2+ 0.025 mM): 25.5 mM
EC50 ([3]; Zn^2+ 0 mM): 3.7 mM
EC50 ([3]; Zn^2+ 0.01 mM): 4.56 mM
EC50 ([3]; Zn^2+ 0.1 mM): 4.22 mM
EC50 ([4]; Zn^2+ 0.01 mM): 0.92 mM
EC50 ([4]; Zn^2+ 0.05 mM): 3.72 mM
EC50 ([4]; Zn^2+ 0.1 mM): 10.1 mM
EC50 ([5]; Zn^2+ 0 mM): 0.67 mM
EC50 ([5]; Zn^2+ 0.01 mM): 1.17 mM
EC50 ([5]; Zn^2+ 0.05 mM): 4.82 mM
EC50 ([5]; Zn^2+ 0.1 mM): 12.2 mM
τdecay [6, 9]: 33.5 ± 6.9 ms
τrise [6, 9]: 19.6 ± 3.1 ms
τdecay [6, 10]: 34.7 ± 5.6 ms
τrise [6, 10]: 16.7 ± 1.5 ms
τdecay [6, 11]: 23.9 ± 3.1 ms
τrise [6, 11]: 38.5 ± 6.7 ms
τdecay [6, 12]: 36.7 ± 12.7 ms
τrise [6, 12]: 16.4 ± 2.2 ms

[Zn+2] [Zn^2+, zinc]
Ki ([1]; Schild analysis, agonist propylamine, read-out: Ki app): 0.007 mM
Slope ([1]; agonist propylamine): 1.2±0.01
pA ([1]; Schild plot x-intercept, agonist propylamine): −2.16±0.13
Ki ([1]; agonist propylamine, read-out: Schild plot x-intercept): 0.008 mM
modulation in the double mutant ([3]; D113A/D158A): abolish

— publication PMC3502511, “Inhibition of the Prokaryotic Pentameric Ligand-Gated Ion Channel ELIC by Divalent Cations” (PLoS Biology, 2012)
